The results in this text go back to publication PMC8816891, “High-throughput cell-based assays for identifying antagonists of multiple smoking-associated human nicotinic acetylcholine receptor subtypes” (SLAS discovery : advancing life sciences R & D, 2021).

Experiment [1] concerns the target T1, human α4β2-nAChR (Homo sapiens, UniProt P17787+P43681). In words: cell-based.
Method: As described in that prior publication, this SH-EP1-α6/3 β2β3-nAChR monoclone is maintained in medium supplemented with zeocin (0.25 mg/mL), hygromycin (0.13 mg/mL biologically active) and G418 (0.6 mg/mL) to maintain positive selection of transfectants, and cultured at low passage numbers (1–40 from our frozen stocks) to ensure stable expression of the phenotype.
For the SH-EP1-α4 β2-nAChR and SH-EP1-α6/3 β2β3-nAChR lines: cells were seeded into 384-well black tissue culture plates (Corning #3712) at 7000 cells per well in 50 μl assay media using a microfill (BioTek). The plates were incubated overnight at 37 °C to allow cells to adhere to the plate, then transferred to 29 °C and incubated for ~72h to maximize receptor expression. On the compound addition day, medium was aspirated and plates washed one time with wash buffer (1x HBSS with 20 mM HEPES adjusted to pH 7.4) using a BioTek ELx405 Select CW Plate Washer. Twenty-five microliters of 0.5x FLIPR Membrane Potential dye (Molecular Devices, R8034; prepared in wash buffer) was added to the plates using a microfill. The plates were further incubated at 29 °C for 60 min and background fluorescence was measured (Envision, Perkin Elmer). […] Plates were then incubated at room temperature for 20 min and fluorescence was measured again. Background fluorescence was subtracted from the final fluorescence read during data analysis.
EC50 values were calculated using nonlinear regression analysis via GraphPad Prism 7 (GraphPad software, Inc.).
After subtracting background fluorescence from fluorescent read for each plate well, the raw data were converted into a list and all plates were appended by run. For analysis purposes, each data point was annotated with well coordinate, well type, compound identifier, titer plate barcode, run identifier, date, and protocol information. Basic statistics and QC criteria were calculated within TIBCO Spotfire (v7.0.0). Basic statistics of control wells were examined by well type, by run, plate, and row/column to monitor run-to-run and plate-to-plate variation, and to exclude possible experimental issues such as striping. […] Concordance between replicates was assessed using linear regression. For each test well, the percentage of inhibition was obtained by subtracting the normalized fluorescent signal (NFS), expressed as a percentage, from 100%.
The target in experiment [2] is T2, human α6/3β2β3-nAChR (Homo sapiens, UniProt P17787+P32297+Q05901+Q15825).
T2 construct: expressed in transfected cells
T2 sequence (Q15825+P32297 fused with the stated changes): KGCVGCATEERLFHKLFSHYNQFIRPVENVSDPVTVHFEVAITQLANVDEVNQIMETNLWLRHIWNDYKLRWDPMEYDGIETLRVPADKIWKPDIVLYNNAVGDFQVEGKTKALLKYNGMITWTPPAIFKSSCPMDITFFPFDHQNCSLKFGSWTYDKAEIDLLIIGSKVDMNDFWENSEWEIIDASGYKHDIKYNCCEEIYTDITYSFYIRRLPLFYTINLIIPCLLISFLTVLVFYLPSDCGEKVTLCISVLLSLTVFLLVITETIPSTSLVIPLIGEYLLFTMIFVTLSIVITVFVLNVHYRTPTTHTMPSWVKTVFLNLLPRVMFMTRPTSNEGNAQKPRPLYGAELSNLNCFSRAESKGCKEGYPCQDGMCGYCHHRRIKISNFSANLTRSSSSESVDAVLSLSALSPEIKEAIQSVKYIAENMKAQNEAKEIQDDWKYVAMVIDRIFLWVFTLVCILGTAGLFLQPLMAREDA
T2 sequence (P17787 26-502): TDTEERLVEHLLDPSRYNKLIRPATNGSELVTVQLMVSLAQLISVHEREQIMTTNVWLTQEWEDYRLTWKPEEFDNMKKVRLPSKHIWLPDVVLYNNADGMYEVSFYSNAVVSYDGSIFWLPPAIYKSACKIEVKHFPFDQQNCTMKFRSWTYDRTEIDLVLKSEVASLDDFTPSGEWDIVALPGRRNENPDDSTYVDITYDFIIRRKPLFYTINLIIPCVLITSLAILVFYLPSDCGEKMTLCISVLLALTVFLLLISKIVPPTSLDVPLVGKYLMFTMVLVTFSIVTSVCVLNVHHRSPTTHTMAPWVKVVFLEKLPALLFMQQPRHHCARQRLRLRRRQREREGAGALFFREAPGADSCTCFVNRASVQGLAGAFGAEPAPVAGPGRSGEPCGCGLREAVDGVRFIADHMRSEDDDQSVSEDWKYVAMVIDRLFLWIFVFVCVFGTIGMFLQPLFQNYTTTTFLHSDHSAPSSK
T2 sequence (Q05901 22-458): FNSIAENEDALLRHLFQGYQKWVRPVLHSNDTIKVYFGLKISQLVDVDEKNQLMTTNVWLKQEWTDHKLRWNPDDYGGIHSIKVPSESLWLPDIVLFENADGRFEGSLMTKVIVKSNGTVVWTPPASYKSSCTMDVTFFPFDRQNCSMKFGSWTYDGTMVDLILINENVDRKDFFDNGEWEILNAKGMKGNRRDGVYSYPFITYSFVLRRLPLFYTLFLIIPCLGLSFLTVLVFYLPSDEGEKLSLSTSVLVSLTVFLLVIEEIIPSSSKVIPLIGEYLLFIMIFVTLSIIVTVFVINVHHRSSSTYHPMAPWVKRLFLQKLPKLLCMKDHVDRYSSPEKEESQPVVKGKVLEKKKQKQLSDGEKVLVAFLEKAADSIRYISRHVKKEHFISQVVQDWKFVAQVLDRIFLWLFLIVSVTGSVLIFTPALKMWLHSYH
Nature of the experiment: membrane potential dye assay, SH-EP1-α6/3β2β3-nAChR cells. It is filed as cell-based. How it is done: (§1) Concordance between replicates was assessed using linear regression.

Experiment [3] has as its target T3, human α3β4-nAChR (Homo sapiens, UniProt P30926+P32297).
T3 construct: expressed in transfected cells
Nature of the experiment: 86Rb+ efflux orthogonal assay, SH-EP1-α3β4-nAChR cells. The format is cell-based. As to conditions: 10 μM; validated = reduced specific efflux by > 3x SD vs no-drug control. On the procedure:
(§2) Cells were grown to confluence in 24-well plates (Falcon; 500 μl volume per well). The evening before each assay was to be performed, the medium was removed and replaced with 250 μl per well of complete medium supplemented with ~350,000 cpm of ^86Rb^+ (NEN; counted at 40% efficiency using Cerenkov counting and the Packard TriCarb 1900 Liquid Scintillation Analyzer). This allowed overnight loading of cells with tracer.
(§3) Determinations of antagonist efficacy were performed in triplicate in each plate, and each antagonist was tested in three separate experiments. […] Specific efflux was then taken as the difference in control samples between total and non-specific ^86Rb^+ efflux, and was used to calculate the efficacy of blocking specific efflux by the test compounds.
(§4) Fig. 4. Validation and specificity testing of HTS antagonist hits using an orthogonal assay. […] (A) All plates were normalized to internal maximum and minimum controls, as described in the Materials and Methods section. […] Activity measured at α3β4-nAChR is shown with blue symbols, that at α4β2-nAChR with red symbols, and that at α6/3 β2 β3-nAChR with green symbols. Dashed lines are color-matched to data symbols and designate the 3 X SD thresholds above the no-antagonist controls, used to determine validation of antagonist activity in each of the assays.

Experiment [4] deals with T2, human α6/3β2β3-nAChR. In words: 86Rb+ efflux orthogonal assay, SH-EP1-α6/3β2β3-nAChR cells. The conditions noted are these: 10 μM; validated = reduced specific efflux by > 3x SD vs no-drug control. It is filed as cell-based. On the procedure:
as §2, §3, §4

For experiment [5], the target named is T1, human α4β2-nAChR. In words: 86Rb+ efflux orthogonal assay, SH-EP1-α4β2-nAChR cells. The format is cell-based. Also noted: expressed in transfected cells. The conditions noted are these: 10 μM; validated = reduced specific efflux by > 3x SD vs no-drug control. On the procedure:
Cells were grown to confluence in 24-well plates (Falcon; 500 μl volume per well). The evening before each assay was to be performed, the medium was removed and replaced with 250 μl per well of complete medium supplemented with ~350,000 cpm of ^86Rb^+ (NEN; counted at 40% efficiency using Cerenkov counting and the Packard TriCarb 1900 Liquid Scintillation Analyzer). This allowed overnight loading of cells with tracer. The assay was based on a proven, routine ^86Rb^+ efflux assay “flip-plate” protocol that includes 1500 nM atropine to exclude possible contributions of muscarinic acetylcholine receptors, with test compound or control solutions applied for 30 s.
Determinations of antagonist efficacy were performed in triplicate in each plate, and each antagonist was tested in three separate experiments. […] Both determinations of non-specific efflux were equivalent. Specific efflux was then taken as the difference in control samples between total and non-specific ^86Rb^+ efflux, and was used to calculate the efficacy of blocking specific efflux by the test compounds.
Fig. 4. Validation and specificity testing of HTS antagonist hits using an orthogonal assay. […] Activity measured at α3β4-nAChR is shown with blue symbols, that at α4β2-nAChR with red symbols, and that at α6/3 β2 β3-nAChR with green symbols. […]

In experiment [6] the target is T3, human α3β4-nAChR. Nature of the experiment: membrane potential dye assay, SH-EP1-α3β4-nAChR cells. It is filed as cell-based. On the procedure:
as §1

[7] abbreviates: IC50, 5 min incubation, in the presence of 500nM of nicotine.
Where [8] appears, read: IC50, 10 min incubation, in the presence of 500nM of nicotine.
[9] abbreviates: IC50, 20 min incubation, in the presence of 500nM of nicotine.
Where [10] appears, read: IC50, 25 min incubation, in the presence of 500nM of nicotine.
Where [11] appears, read: average IC50 across all time-points, averaged over 5-30 min reads, nicotine at EC90.
The mark [12] stands for this setting: read-out: pre-determined EC90 value.

Where a name gives a salt, the structure may show the parent alone. Read-outs that look alike come from different tables or passages of the source.

T3 sequence (P32297 32-505): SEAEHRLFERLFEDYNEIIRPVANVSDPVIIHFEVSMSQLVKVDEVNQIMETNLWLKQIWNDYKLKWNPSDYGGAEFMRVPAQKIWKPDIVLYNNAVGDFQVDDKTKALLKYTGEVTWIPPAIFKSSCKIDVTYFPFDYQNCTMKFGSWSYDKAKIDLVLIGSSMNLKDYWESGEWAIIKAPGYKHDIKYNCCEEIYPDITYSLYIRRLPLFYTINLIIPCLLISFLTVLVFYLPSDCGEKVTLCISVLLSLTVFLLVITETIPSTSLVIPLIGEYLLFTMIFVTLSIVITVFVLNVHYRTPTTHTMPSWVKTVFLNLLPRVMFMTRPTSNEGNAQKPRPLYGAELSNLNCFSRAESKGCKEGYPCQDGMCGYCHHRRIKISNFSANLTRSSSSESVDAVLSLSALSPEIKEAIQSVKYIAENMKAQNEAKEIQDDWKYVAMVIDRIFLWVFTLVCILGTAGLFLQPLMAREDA
T3 sequence (P30926 22-498): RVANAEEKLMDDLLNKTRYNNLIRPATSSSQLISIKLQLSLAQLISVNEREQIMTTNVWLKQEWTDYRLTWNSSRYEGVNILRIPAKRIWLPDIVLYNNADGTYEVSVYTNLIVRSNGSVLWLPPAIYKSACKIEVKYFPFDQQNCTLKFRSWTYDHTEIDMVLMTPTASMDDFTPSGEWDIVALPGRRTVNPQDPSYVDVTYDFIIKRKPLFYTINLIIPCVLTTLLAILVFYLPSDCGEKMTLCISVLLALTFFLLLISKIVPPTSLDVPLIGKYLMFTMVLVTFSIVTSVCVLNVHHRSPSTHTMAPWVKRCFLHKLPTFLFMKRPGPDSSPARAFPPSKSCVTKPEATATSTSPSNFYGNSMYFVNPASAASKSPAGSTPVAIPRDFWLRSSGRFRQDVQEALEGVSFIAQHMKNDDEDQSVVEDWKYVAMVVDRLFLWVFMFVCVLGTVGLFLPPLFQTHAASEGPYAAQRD
T1 sequence (P43681 29-627 limits assumed): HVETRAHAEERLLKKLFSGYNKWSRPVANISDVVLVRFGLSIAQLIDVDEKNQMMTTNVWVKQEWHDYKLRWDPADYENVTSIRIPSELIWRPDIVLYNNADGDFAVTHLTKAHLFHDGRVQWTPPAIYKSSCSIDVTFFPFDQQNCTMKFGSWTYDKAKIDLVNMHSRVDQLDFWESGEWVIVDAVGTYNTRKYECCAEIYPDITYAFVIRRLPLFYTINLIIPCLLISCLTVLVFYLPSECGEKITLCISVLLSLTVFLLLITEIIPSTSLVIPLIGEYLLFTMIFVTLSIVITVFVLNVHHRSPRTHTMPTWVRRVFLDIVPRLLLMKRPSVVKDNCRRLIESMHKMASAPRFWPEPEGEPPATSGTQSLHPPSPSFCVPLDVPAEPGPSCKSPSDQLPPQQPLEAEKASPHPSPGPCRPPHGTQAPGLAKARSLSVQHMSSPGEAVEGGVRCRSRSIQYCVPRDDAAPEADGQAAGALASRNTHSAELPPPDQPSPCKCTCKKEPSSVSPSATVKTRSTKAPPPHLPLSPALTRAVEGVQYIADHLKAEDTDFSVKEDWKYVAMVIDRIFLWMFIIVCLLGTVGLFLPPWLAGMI
T1 sequence (P17787 26-502): as the sequence (P17787 26-502) above

Regarding `C[N+](C)(C)CCCCCC[N+](C)(C)C` [hexamethonium], the IC50 is 71600 nM on human α4β2-nAChR [1] (IC50); 98300 nM on human α4β2-nAChR [1] (setting [7]); 100000 nM on human α4β2-nAChR [1] (setting [8]); 47900 nM at human α4β2-nAChR [1] (setting [9]); 38900 nM at human α4β2-nAChR [1] (setting [10]); 37400 nM at human α4β2-nAChR [1] (IC50, 30 min incubation, in the presence of 500nM of nicotine). Moreover, the IC50 against human α4β2-nAChR [1] (setting [11]) was found to be 65800 ± 28800 nM.

`CNC1(C)C2CCC(C2)C1(C)C` (stereo not drawn) [mecamylamine]: the IC50 at human α6/3β2β3-nAChR [2] (in the presence of 500 nM nicotine (EC90), read-out: IC50 (α6/3β2β3), Fig. 2D) turned out to be 1670 nM; at human α6/3β2β3-nAChR [2] (nicotine at EC90, read-out: average IC50, comparison across subtypes), 1670 nM; at human α4β2-nAChR [1] (IC50) it was 896 nM; on human α4β2-nAChR [1] (IC50 (α4β2), Fig. 2D, in the presence of 500 nM nicotine (EC90), subtype comparison), 537 nM; at human α4β2-nAChR [1] (setting [7]) it was 2250 nM; on human α4β2-nAChR [1] (setting [8]), 1090 nM. Moreover, the IC50 stood at 919 nM on human α4β2-nAChR [1] (setting [9]); 983 nM on human α4β2-nAChR [1] (setting [10]); 540 nM against human α4β2-nAChR [1] (average IC50, comparison across subtypes, nicotine at EC90); 1210 ± 520 nM against human α4β2-nAChR [1] (setting [11]). Further, the “antagonist hit identified in HTS and validated by 86Rb+ efflux” value on human α3β4-nAChR [3] was “identified and validated as a hit”; at human α6/3β2β3-nAChR [4], “identified and validated as a hit”; at human α4β2-nAChR [5], “identified and validated as a hit”.

For the molecule `CN1CCC[C@H]1c1cccnc1` [nicotine, (−)-nicotine], the concentration for an effect of 90% (EC90) at human α3β4-nAChR [6] (setting [12]) was 20000 nM; on human α6/3β2β3-nAChR [2] (setting [12]), 500 nM; at human α4β2-nAChR [1] (setting [12]) it was 500 nM.

Consider `CNCCC=C1c2ccccc2CCc2ccccc21` [nortriptyline hydrochloride], for which the “antagonist hit call in pilot screen” value at human α3β4-nAChR [6] (test compound 10 μM with 20 μM nicotine (EC90), hit = signal below mean - 3 SD) is “identified as a hit”.
